Target: T1, human MCH-1R (Homo sapiens, UniProt Q99705)
T1 construct: expressed in transfected cells; host or cells: CHO-K1 (American Type Culture Collection); membrane samples
Assay: MCH binding inhibition test
Details: membranes of MCH-1R expressing CHO-K1 cells, 50 pM [125I]MCH, 25° C., one hour, pH 7.4; read-out: IC50 (50% inhibition concentration to the specific [125I]MCH binding)
Source text: Pharmacological Test Example 1 (MCH Binding Inhibition Test)
A human MCH-1R encoding cDNA sequence [FEBS Letters, Vol. 398, 253 (1996); Biochimica et Biophisica Acta, Vol. 1401, 216 (1998)] was cloned to a plasmid vector pEF/myc/cyto (Invitrogen Corporation). The obtained expression vector was transfected to host cells CHO-K1 (American Type Culture Collection) using Lipofectamine Plus Reagent (Life Technology Inc.) to provide MCH-1R expression cells.
Membrane samples prepared from the MCH-1R expression cells were incubated with each test compound and 50 pM of [^125I]MCH (NEN Co.), in an assay buffer (50 mM Tris buffer comprising 10 mM magnesium chloride, 2 mM ethylenediamine tetraacetate, 0.01% bacitracin and 0.2% bovine serum albumin; pH 7.4) at 25° C. for an hour, followed by filtration through a glass filter GF/C (Wattman Co.). After washing the glass filter with 50 mM Tris buffer (pH 7.4) comprising 10 mM magnesium chloride, 2 mM ethylenediamine tetraacetate and 0.04% Tween-20, the radioactive activity on the glass filter was measured. The non-specific binding was measured in the presence of 1 μM human MCH and 50% inhibition concentration (IC50 value) of each test compound to the specific [^125I]MCH binding was determined.

T1 sequence (Q99705 whole entry): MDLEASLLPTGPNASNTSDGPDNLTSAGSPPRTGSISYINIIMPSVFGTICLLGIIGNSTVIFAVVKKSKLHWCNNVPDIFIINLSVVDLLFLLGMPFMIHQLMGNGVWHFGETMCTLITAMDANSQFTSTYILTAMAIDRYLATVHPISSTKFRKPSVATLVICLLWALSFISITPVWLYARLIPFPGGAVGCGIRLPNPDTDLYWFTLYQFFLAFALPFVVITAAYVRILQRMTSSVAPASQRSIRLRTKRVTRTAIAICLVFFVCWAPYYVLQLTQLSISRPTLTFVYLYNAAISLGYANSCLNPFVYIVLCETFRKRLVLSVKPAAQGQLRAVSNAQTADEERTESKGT

| Compound | IC50 |
| --- | --- |
| CCCN(C)C/C=C/c1ccc(-n2ccc(OCc3ccc(Cl)cc3)cc2=O)cc1 [Example 4, 4-[(4-Chlorobenzyl)oxy]-1-(4-{(1E)-3-[propyl(methyl)amino]-1-propen-1-yl}phenyl)pyridin-2(1H)-one] | 1.2 nM |
| CC(C)N(C)C/C=C/c1ccc(-n2ccc(OCc3ccc(Cl)cc3)cc2=O)cc1 [Example 5, 4-[(4-Chlorobenzyl)oxy]-1-(4-{(1E)-3-[isopropyl(methyl)amino]-1-propen-1-yl]phenyl}pyridin-2(1H)-one] | 1.4 nM |
| CCCCN(C)C/C=C/c1ccc(-n2ccc(OCc3ccc(Cl)cc3)cc2=O)cc1 [Example 6, 4-[(4-Chlorobenzyl)oxy]-1-(4-{(1E)-3-[butyl(methyl)amino]-1-propen-1-yl}phenyl)pyridin-2(1H)-one] | 0.93 nM |
| O=c1cc(OCc2ccc(F)cc2)ccn1-c1ccc(NCCN2CCCC2)cc1 [Example 14, 4-[(4-Fluorobenzyl)oxy]-1-{4-[(2-pyrrolidin-1-ylethyl)amino]phenyl}pyridin-2(1H)-one] | 4.5 nM |
| O=c1cc(OCc2ccc(F)cc2)ccn1-c1ccc([C@H]2C[C@H](N3CCCC3)C2)cc1 [Example 53, 4-[(4-Fluorobenzyl)oxy]-1-[4-(trans-3-pyrrolidin-1-ylcyclobutyl)phenyl]pyridin-2(1H)-one] | 3.5 nM |

Continued by falling IC50, values first:

| IC50 | Compound |
| --- | --- |
| 6.2 nM | CCN(CC)CCc1ccc(-n2ccc(OCc3ccc(Cl)cn3)cc2=O)cc1 [Example 32, 4-[(5-Chloropyridin-2-yl)methoxy]-1-{4-[2-(diethylamino)ethyl]phenyl}pyridin-2(1H)-one] |
| 5.8 nM | CO[C@H]1CCN(CCc2ccc(-n3ccc(OCc4ccc(F)cc4)cc3=O)cc2)C1 [Example 27, 4-[(4-Fluorobenzyl)oxy]-1-(4-{2-[(3S)-3-methoxypyrrolidin-1-yl]ethyl}phenyl)pyridin-2(1H)-one] |
| 4.6 nM | O=c1cc(OCc2ccc(Cl)cn2)ccn1-c1ccc(CCNC2CCCC2)cc1 [Example 37, 4-[(5-Chloropyridin-2-yl)methoxy]-1-{4-[(2-cyclopentylamino)ethyl]phenyl}pyridin-2(1H)-one] |
| 1.5 nM | CCN(C)C/C=C/c1ccc(-n2ccc(OCc3ccc(Cl)cc3)cc2=O)cc1 [Example 3, 4-[(4-Chlorobenzyl)oxy]-1-(4-{(1E)-3-[ethyl(methyl)amino]-1-propen-1-yl}phenyl)pyridin-2(1H)-one] |
| 1.4 nM | CN(C)C/C=C/c1ccc(-n2ccc(OCc3ccc(Cl)cc3)cc2=O)cc1 [Example 8, 4-[(4-Chlorobenzyl)oxy]-1-(4-[(1E)-3-(dimethylamino)-1-propen-1-yl]phenyl)pyridin-2(1H)-one] |

From patent publication US7875633B2, “Phenylpyridone derivative” (Banyu Pharmaceutical Co., Ltd., priority 2005, dated 2011)
